{
  "source": "the NIST ThermoML archive (doi:10.1021/je900298e)",
  "conditions": "101.33 kPa, Liquid",
  "note": "± gives the expanded uncertainty stated by the source.",
  "data": [
    {"smiles": "CCCC[N+]1(C)CCCC1.O=S(=O)([N-]S(=O)(=O)C(F)(F)F)C(F)(F)F", "values": [
      {"measurement": "mass density", "setting": "289 K", "result": "1404.3 ± 1.6", "unit": "kg/m3"},
      {"measurement": "mass density", "setting": "291 K", "result": "1402.6 ± 1.5", "unit": "kg/m3"},
      {"measurement": "mass density", "setting": "293 K", "result": "1401 ± 1.5", "unit": "kg/m3"},
      {"measurement": "mass density", "setting": "295 K", "result": "1399.4 ± 1.5", "unit": "kg/m3"},
      {"measurement": "mass density", "setting": "297.05 K", "result": "1397.8 ± 1.5", "unit": "kg/m3"},
      {"measurement": "mass density", "setting": "299.05 K", "result": "1396.2 ± 1.5", "unit": "kg/m3"},
      {"measurement": "mass density", "setting": "301.05 K", "result": "1394.6 ± 1.5", "unit": "kg/m3"},
      {"measurement": "mass density", "setting": "303.1 K", "result": "1393.1 ± 1.5", "unit": "kg/m3"},
      {"measurement": "mass density", "setting": "305.1 K", "result": "1391.5 ± 1.5", "unit": "kg/m3"},
      {"measurement": "mass density", "setting": "307.1 K", "result": "1390 ± 1.5", "unit": "kg/m3"},
      {"measurement": "mass density", "setting": "309.1 K", "result": "1388.5 ± 1.5", "unit": "kg/m3"}
    ]}
  ]
}
